Several values for one entry are separate records, joined by “and”; a condition that tells them apart may be missing. Identical values can stand only once. Positions of bridges follow the written chain, without caps; N, C: chain ends. Non-standard residues stand in square brackets, D forms with d. Residues, ends and D or L forms follow the SMILES beside them. *: point of attachment. Ileψ(thiazoline)Cys = CC[C@H](C)[C@H](N)C1=N[C@H](C(=O)*)CS1; dOrn = NCCC[C@@H](N)C(=O)O
Legend:
Ca. glabrata DSM 11226 = experiment: Disk diffusion test for antimicrobial activity (DIN 58940-3) against Ca. glabrata; format: cell-based; settings: test strain 2 (Ca. glabrata DSM 11226); positive control 2 μg Cycloheximide/disc; 24 h at 25° C.; disk diameter = 6 mm
Experimental: (§1) Generally, all samples were provided in lyophilized from. Subsets of each sample were suspended in solvent for analysis by LC/MS and GC/MS. Following these analyses, further subsets of each sample were extracted and fractionated (to enrich the medium polar range). Fractions were analyzed by LC/MS. Cell extracts were analyzed in a bioassay against Candida sp. and Rhodotorula sp. in a disk diffusion assay at 3 concentrations.
(§2) Preparative Cell Extraction. Lyophilized cells were extracted prior to fractionation/bio assay to remove cell wall debris. The cells were adjusted to a final concentration of 50 mg/mL (Table 9) and sonicated for 15 min followed by vortexing for 2 min and a second sonication step of 15 min. Afterwards, 10 mL of the suspension were transferred to another vial an centrifuged at 10,000 RCF for 5 min. The supernatant was transferred to a new vial.
(§3) Disk diffusion test. Disk diffusion tests for antimicrobial activity were prepared according to DIN 58940-3 (DIN-Taschenbuch 222, 5. Edition) using the strains 00549fBCD000864 (Rho. glutinis, test strain #1) DSM 70821 and 00539fDSM011226 (Ca. glabrata, test strain #2) DSM 11226. […]
(§4) The test strains were diluted to 1.000.000 cfu/mL using saline solution. […] After 24 h the zone of inhibition was measured and recorded in Table 10 below.

Rho. glutinis DSM 70821 = experiment: Disk diffusion test for antimicrobial activity (DIN 58940-3) against Rho. glutinis; format: cell-based; settings: test strain 1 (Rho. glutinis DSM 70821); positive control 2 μg Cycloheximide/disc; 24 h at 25° C.; disk diameter = 6 mm
Experimental: as §1, §2, §3, §4

FP-ST38 = experiment: Kirby-Bauer disk diffusion antibiotic susceptibility testing of FP-ST38; format: cell-based, Faecalibacterium prausnitzii; settings: FP-ST38 susceptible
Experimental: Antibiotic susceptibility was determined by standard Kirby-Bauer disk diffusion testing. FP-ST38 is susceptible to the following antibiotics (cm=zone of inhibition): amoxicillin/clavulanic acid (2.5 cm), ceftriaxone (2 cm), tetracycline (5 cm), amikacin (2 cm), and bacitracin (3.4 cm).

F. prausnitzii ST38 = experiment: Antibiotic resistance by broth solution method (MIC), F. prausnitzii ST38; format: cell-based, Faecalibacterium prausnitzii
Experimental: (§5) Antibiotic resistance in this example was determined using the broth solution method.
(§6) Antibiotic resistance in this example was determined using the broth solution method. This procedure involved preparing two-fold dilutions of antibiotics (e.g., 1, 2, 4, 8, and 16 μg/mL) in a liquid growth medium dispensed in test tubes. The antibiotic-containing tubes were inoculated with a standardized bacterial suspension of about 1-5×10^5 CFU/mL. Following overnight incubation at 37° C., the tubes were examined for visible bacterial growth as evidenced by turbidity. The lowest concentration of antibiotic that prevented growth represented the minimal inhibitory concentration (MIC).

L. crispatus ST100 = experiment: Antibiotic resistance by broth solution method (MIC), L. crispatus ST100; format: cell-based, Lactobacillus crispatus
Experimental: as §5, §6

LC-ST100 = experiment: Kirby-Bauer disk diffusion antibiotic susceptibility testing of LC-ST100; format: cell-based, Lactobacillus crispatus; settings: LC-ST100 susceptible
Experimental: Antibiotic susceptibility was determined by standard Kirby-Bauer disk diffusion testing. LC-ST100 is susceptible to the following antibiotics (cm=zone of inhibition): azithromycin (3.5 cm), amoxicillin/clavulanic acid (5 cm), clindamycin (4 cm), vancomycin (3.8 cm), ceftriaxone (3.5 cm), tetracycline (4.2 cm), ampicillin (4 cm), bacitracin (2.5 cm).

A. muciniphila ST7 = experiment: Antibiotic resistance by broth solution method (MIC), A. muciniphila ST7; format: cell-based, Akkermansia muciniphila
Experimental: as §5, §6

AM-ST7 = experiment: Kirby-Bauer disk diffusion antibiotic susceptibility testing of AM-ST7; format: cell-based, Akkermansia muciniphila; settings: AM-ST7 susceptible
Experimental: Antibiotic susceptibility was then determined by standard Kirby-Bauer disk diffusion testing. AM-ST7 was susceptible to the following antibiotics (cm=zone of inhibition): azithromycin (2.5 cm), amoxicillin/clavulanic acid (4 cm), vancomycin (1.5 cm), tetracycline (3 cm), bacitracin (2 cm), and levofloxacin (1.2 cm).

Compound | zone of inhibition (FP-ST38) [cm] | zone of inhibition (LC-ST100) [cm] | zone of inhibition (AM-ST7) [cm] | further results
C[C@@H]1C[C@@H]([C@H](O)CC2CC(=O)NC(=O)C2)C(=O)[C@@H](C)C1 [Cycloheximide] |  |  |  | Diameter inhibition zone [mm] Pos. Control (Ca. glabrata DSM 11226): 11 mm and 10 mm and 9 mm; Diameter inhibition zone [mm] Pos. Control (Rho. glutinis DSM 70821): 14 mm and 13 mm
NCC[C@H](O)C(=O)N[C@@H]1C[C@H](N)[C@@H](O[C@H]2O[C@H](CN)[C@@H](O)[C@H](O)[C@H]2O)[C@H](O)[C@H]1O[C@H]1O[C@H](CO)[C@@H](O)[C@H](N)[C@H]1O [amikacin] | 2 |  |  | antibiotic susceptibility (F. prausnitzii ST38): susceptible
CC1(C)S[C@@H]2[C@H](NC(=O)[C@H](N)c3ccccc3)C(=O)N2[C@H]1C(=O)O [ampicillin] |  | 4 |  | antibiotic susceptibility (L. crispatus ST100): susceptible
CC[C@H]1OC(=O)[C@H](C)[C@@H](O[C@H]2C[C@@](C)(OC)[C@@H](O)[C@H](C)O2)[C@H](C)[C@@H](O[C@@H]2O[C@H](C)C[C@H](N(C)C)[C@H]2O)[C@](C)(O)C[C@@H](C)CN(C)[C@H](C)[C@@H](O)[C@]1(C)O [azithromycin] |  | 3.5 | 2.5 | antibiotic susceptibility (L. crispatus ST100): susceptible; antibiotic susceptibility (A. muciniphila ST7): susceptible; antibiotic susceptibility (F. prausnitzii ST38): susceptible
CC[C@H](C)[C@H](N)C1=N[C@H](C(=O)N[C@@H](CC(C)C)C(=O)N[C@H](CCC(=O)O)C(=O)N[C@H](C(=O)N[C@H]2CCCCNC(=O)[C@H](CC(N)=O)NC(=O)[C@@H](CC(=O)O)NC(=O)[C@H](Cc3cnc[nH]3)NC(=O)[C@@H](Cc3ccccc3)NC(=O)[C@H]([C@@H](C)CC)NC(=O)[C@@H](CCCN)NC2=O)[C@@H](C)CC)CS1 [bacitracin] ({Ileψ(thiazoline)Cys}-L[dE]IK[dOrn]I[dF]H[dD]N; lactam 4-C) | 3.4 | 2.5 | 2 | 
CO/N=C(\C(=O)N[C@@H]1C(=O)N2C(C(=O)O)=C(CSc3nc(=O)c(=O)[nH]n3C)CS[C@H]12)c1csc(N)n1 [ceftriaxone] | 2 | 3.5 |  | 
CCC[C@@H]1C[C@@H](C(=O)N[C@@H]([C@H]2O[C@H](SC)[C@H](O)[C@@H](O)[C@H]2O)[C@H](C)Cl)N(C)C1 [clindamycin] |  | 4 |  | 
C[C@H]1COc2c(N3CCN(C)CC3)c(F)cc3c(=O)c(C(=O)O)cn1c23 [levofloxacin] |  |  | 1.2 | 
CN(C)[C@@H]1C(O)=C(C(N)=O)C(=O)[C@@]2(O)C(O)=C3C(=O)c4c(O)cccc4[C@@](C)(O)[C@H]3C[C@@H]12 [tetracycline] | 5 | 4.2 | 3 | 
CN[C@H](CC(C)C)C(=O)N[C@H]1C(=O)N[C@@H](CC(N)=O)C(=O)N[C@H]2C(=O)N[C@H]3C(=O)N[C@H](C(=O)N[C@H](C(=O)O)c4cc(O)cc(O)c4-c4cc3ccc4O)[C@H](O)c3ccc(c(Cl)c3)Oc3cc2cc(c3O[C@@H]2O[C@H](CO)[C@@H](O)[C@H](O)[C@H]2O[C@H]2C[C@](C)(N)[C@H](O)[C@H](C)O2)Oc2ccc(cc2Cl)[C@H]1O [vancomycin] |  | 3.8 | 1.5 | antibiotic susceptibility (L. crispatus ST100): susceptible; antibiotic susceptibility (F. prausnitzii ST38): susceptible
amoxicillin/clavulanic acid | 2.5 | 5 | 4 | 
